In PubChem BioAssay AID330 (DTP/NCI, 2004):
Values joined by “and” are separate entries in the source; they are usually repeats but may differ in a detail not shown here. Equal values may be shown once. Toxic doses and inconclusive results are not listed.

System: P388 leukemia ip, CD2F1 mice, survival T/C
Assay: NCI In Vivo Anticancer Drug Screen. Data for tumor model P388 Leukemia (intraperitoneal) in CD2F1 (CDF1) mice
Details: endpoint: median survival time, higher = longer survival
Outline: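 Mice carrying the transplanted tumor received test compound or vehicle. Survival was recorded in each group, and the value is the treated-group measurement divided by that of the vehicle-treated control group.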

[1] = dose: 6.25 mg/kg/injection, schedule: Q01DX009 (ip), vehicle: saline with Tween-80
[2] = dose: 12.5 mg/kg/injection, schedule: Q01DX009 (ip), vehicle: saline with Tween-80
[3] = dose: 25.0 mg/kg/injection, schedule: Q01DX009 (ip), vehicle: saline with Tween-80
[4] = dose: 100.0 mg/kg/injection, schedule: Q01DX001 (ip), vehicle: saline with Tween-80
[5] = dose: 200.0 mg/kg/injection, schedule: Q01DX001 (ip), vehicle: saline with Tween-80
[6] = dose: 400.0 mg/kg/injection, schedule: Q01DX001 (ip), vehicle: saline with Tween-80
[7] = dose: 50.0 mg/kg/injection, schedule: Q01DX009 (ip), vehicle: saline with Tween-80
[8] = dose: 100.0 mg/kg/injection, schedule: Q01DX009 (ip), vehicle: saline with Tween-80
[9] = dose: 200.0 mg/kg/injection, schedule: Q01DX009 (ip), vehicle: saline with Tween-80
[10] = dose: 60.0 mg/kg/injection, schedule: Q01DX005 (ip), vehicle: saline with Tween-80
[11] = dose: 120.0 mg/kg/injection, schedule: Q01DX005 (ip), vehicle: saline with Tween-80
[12] = dose: 240.0 mg/kg/injection, schedule: Q01DX005 (ip), vehicle: saline with Tween-80
[13] = dose: 50.0 mg/kg/injection, schedule: Q01DX009 (ip), vehicle: saline
[14] = dose: 100.0 mg/kg/injection, schedule: Q01DX009 (ip), vehicle: saline
[15] = dose: 200.0 mg/kg/injection, schedule: Q01DX009 (ip), vehicle: saline
[16] = dose: 50.0 mg/kg/injection, schedule: Q01DX005 (ip), vehicle: Klucel (hydroxypropylcellulose) (HPC)
[17] = dose: 100.0 mg/kg/injection, schedule: Q01DX005 (ip), vehicle: Klucel (hydroxypropylcellulose) (HPC)

## O=C(N=Nc1c(O)[nH]c2c(Cl)cc(Cl)cc12)C(=O)Nc1cccc(C(F)(F)F)c1
[1]
  T/C: 95 % of control
[2]
  T/C: 93 % of control
[3]
  T/C: 95 % of control

## Cc1ccc(S(=O)(=O)N/N=C/c2c(-c3ccc(-c4ccccc4)cc3)nc3n2CCS3)cc1
[4]
  T/C: 100 % of control
[5]
  T/C: 102 % of control
[6]
  T/C: 90 % of control

## CCCCCCCCCCCCCCCCCC(=O)Nc1ccn(C2OC(CO)C(O)C2O)c(=O)n1 (stereo unspecified)
[1]
  T/C: 196 % of control
[2]
  T/C: 177 % of control and 227 % of control (2×)
[3]
  T/C: 113 % of control and 267 % of control and 270 % of control
[7]
  T/C: 195 % of control and 267 % of control and 270 % of control
[8]
  T/C: 86 % of control and 92 % of control

## CSC(=S)c1ccc(O)c2ccccc12
[7]
  T/C: 114 % of control
[8]
  T/C: 114 % of control
[9]
  T/C: 105 % of control

## [O-]c1nn(Cc2ccccc2)c2cccc[n+]12
dose: 100.0 mg/kg/injection, schedule: Q04DX002 (ip), vehicle: saline
  T/C: 103 % of control
dose: 200.0 mg/kg/injection, schedule: Q04DX002 (ip), vehicle: saline
  T/C: 99 % of control
dose: 400.0 mg/kg/injection, schedule: Q04DX002 (ip), vehicle: saline
  T/C: 100 % of control

## CC(C)CNC(=O)NCCCCCCNC(=O)NCC(C)C
[10]
  T/C: 94 % of control
[11]
  T/C: 93 % of control
[12]
  T/C: 93 % of control

## COc1cccc(N2CC3CC4C=CC3(C2)O4)c1 (stereo unspecified)
dose: 60.0 mg/kg/injection, schedule: Q01DX005 (ip), vehicle: Klucel (hydroxypropylcellulose) (HPC)
  T/C: 98 % of control
dose: 120.0 mg/kg/injection, schedule: Q01DX005 (ip), vehicle: Klucel (hydroxypropylcellulose) (HPC)
  T/C: 100 % of control
dose: 240.0 mg/kg/injection, schedule: Q01DX005 (ip), vehicle: Klucel (hydroxypropylcellulose) (HPC)
  T/C: 97 % of control

## Cc1ccc(NC(=O)Oc2cc(C)c(Br)c(C)c2)cc1Cl
[13]
  T/C: 107 % of control
[14]
  T/C: 95 % of control
[15]
  T/C: 91 % of control

## CC(O)(CCCCCl)c1nc2ccccc2s1 (stereo unspecified)
[4]
  T/C: 98 % of control
[5]
  T/C: 103 % of control
[6]
  T/C: 92 % of control

## Cc1cc(OCc2nc(N)nc(N)c2-c2ccc(Cl)c(Cl)c2)ccc1NS(=O)(=O)c1cccc(S(=O)(=O)F)c1
dose: 176.0 mg/kg/injection, schedule: Q04DX003 (ip), vehicle: saline
  T/C: 122 % of control
dose: 400.0 mg/kg/injection, schedule: Q04DX003 (ip), vehicle: saline
  T/C: 150 % of control

## CSc1nc(Cl)c(Cl)cc1Cl
[7]
  T/C: 100 % of control
[8]
  T/C: 97 % of control
[9]
  T/C: 91 % of control

## Cc1ncc([N+](=O)[O-])n1Cc1nnc(N)s1
dose: 50.0 mg/kg/injection, schedule: Q01DX009 (ip), vehicle: Klucel (hydroxypropylcellulose) (HPC)
  T/C: 107 % of control
dose: 100.0 mg/kg/injection, schedule: Q01DX009 (ip), vehicle: Klucel (hydroxypropylcellulose) (HPC)
  T/C: 107 % of control
dose: 200.0 mg/kg/injection, schedule: Q01DX009 (ip), vehicle: Klucel (hydroxypropylcellulose) (HPC)
  T/C: 108 % of control

## COC(C(=O)N/C(N)=N/O)c1c(Cl)cccc1Cl (stereo unspecified)
[16]
  T/C: 98 % of control
[17]
  T/C: 109 % of control

## CCCN1C(=O)CC(c2ccc(OC)c(OC)c2)C1=O (stereo unspecified)
[10]
  T/C: 90 % of control
[11]
  T/C: 90 % of control
[12]
  T/C: 90 % of control

## O=C1c2ccccc2C(=O)N1CCc1ncc[nH]1
[10]
  T/C: 99 % of control
[11]
  T/C: 99 % of control
[12]
  T/C: 100 % of control

## CC(=O)OC1C=C2C(=O)OCC2(O)C2(C)CCCC(C)(C)C12 (stereo unspecified)
dose: 3.12 mg/kg/injection, schedule: Q01DX009 (ip), vehicle: other
  T/C: 102 % of control
dose: 6.25 mg/kg/injection, schedule: Q01DX009 (ip), vehicle: other
  T/C: 100 % of control
dose: 12.5 mg/kg/injection, schedule: Q01DX009 (ip), vehicle: other
  T/C: 102 % of control

## COC1C/C(=N\OC(C)=O)C2OC(c3ccccc3)OCC2O1 (stereo unspecified)
[7]
  T/C: 93 % of control
[8]
  T/C: 96 % of control
[9]
  T/C: 95 % of control

## CCCN(CCC)C(=O)c1ccc([N+](=O)[O-])cc1
[3]
  T/C: 106 % of control
[7]
  T/C: 113 % of control
[8]
  T/C: 100 % of control and 104 % of control
[9]
  T/C: 106 % of control

## NC1[N-]C(C2CCCC[N-]2)CC2CCCCC21.NC1[N-]C(C2CCCC[N-]2)CC2CCCCC21.O=[N+]([O-])O.[Cu+2] (stereo unspecified)
dose: 6.25 mg/kg/injection, schedule: Q04DX002 (ip), vehicle: suspension in saline
  T/C: 108 % of control
dose: 12.5 mg/kg/injection, schedule: Q04DX002 (ip), vehicle: suspension in saline
  T/C: 109 % of control

## COc1cc(C)c(OC)c(C/C=C(\C)CC2=C(CC(C)(C)O)C(=O)[C@]3(C)CCC[C@]3(C)C2)c1
dose: 5.0 mg/kg/injection, schedule: Q01DX005 (ip), vehicle: saline with Tween-80
  T/C: 105 % of control
dose: 10.0 mg/kg/injection, schedule: Q01DX005 (ip), vehicle: saline with Tween-80
  T/C: 94 % of control
dose: 20.0 mg/kg/injection, schedule: Q01DX005 (ip), vehicle: saline with Tween-80
  T/C: 94 % of control

## C=C(C)C1Cc2c(cc(OC)c3c(=O)c4cccc(O)c4oc23)O1 (stereo unspecified)
dose: 2.5 mg/kg/injection, schedule: Q01DX009 (ip), vehicle: distilled water + alcohol
  T/C: 104 % of control
dose: 5.0 mg/kg/injection, schedule: Q01DX009 (ip), vehicle: distilled water + alcohol
  T/C: 101 % of control
dose: 10.0 mg/kg/injection, schedule: Q01DX009 (ip), vehicle: distilled water + alcohol
  T/C: 99 % of control

## OC(/C=C/CC(O)(C(F)(F)F)C(F)(F)F)(C(F)(F)F)C(F)(F)F
[13]
  T/C: 100 % of control
[14]
  T/C: 98 % of control

## CCN(CC)CCOC(=O)c1ccc(NC(=O)COc2ccc3ccccc3c2)cc1
dose: 25.0 mg/kg/injection, schedule: Q01DX009 (ip), vehicle: other
  T/C: 88 % of control and 97 % of control
dose: 50.0 mg/kg/injection, schedule: Q01DX009 (ip), vehicle: other
  T/C: 88 % of control and 102 % of control
dose: 100.0 mg/kg/injection, schedule: Q01DX009 (ip), vehicle: other
  T/C: 86 % of control and 105 % of control
dose: 200.0 mg/kg/injection, schedule: Q01DX009 (ip), vehicle: other
  T/C: 102 % of control and 97 % of control
dose: 400.0 mg/kg/injection, schedule: Q01DX009 (ip), vehicle: other
  T/C: 100 % of control and 109 % of control

## COc1ccc(/C=N/N2C(=O)c3ccccc3C2=O)c(OC)c1
[16]
  T/C: 99 % of control
[17]
  T/C: 98 % of control
dose: 200.0 mg/kg/injection, schedule: Q01DX005 (ip), vehicle: Klucel (hydroxypropylcellulose) (HPC)
  T/C: 96 % of control

## NCCCNCCSP(=O)(O)O
[2]
  T/C: 106 % of control
dose: 12.5 mg/kg/injection, schedule: Q01DX009 (ip), vehicle: saline
  T/C: 108 % of control
[3]
  T/C: 104 % of control
dose: 25.0 mg/kg/injection, schedule: Q01DX009 (ip), vehicle: saline
  T/C: 100 % of control and 104 % of control
[7]
  T/C: 95 % of control
[13]
  T/C: 103 % of control and 109 % of control
[14]
  T/C: 104 % of control and 87 % of control
[9]
  T/C: 106 % of control
[15]
  T/C: 112 % of control

## CCOC(=O)COC1=NN(c2cccc(C(F)(F)F)c2)CC1
dose: 100.0 mg/kg/injection, schedule: Q04DX003 (ip), vehicle: Klucel (hydroxypropylcellulose) (HPC)
  T/C: 110 % of control
dose: 200.0 mg/kg/injection, schedule: Q04DX003 (ip), vehicle: Klucel (hydroxypropylcellulose) (HPC)
  T/C: 110 % of control
dose: 400.0 mg/kg/injection, schedule: Q04DX003 (ip), vehicle: Klucel (hydroxypropylcellulose) (HPC)
  T/C: 109 % of control

## Cc1ccc(NC(=O)CCCC(=O)C(C#N)c2c(Cl)cccc2Cl)cc1C (stereo unspecified)
[10]
  T/C: 114 % of control
[11]
  T/C: 108 % of control
[12]
  T/C: 103 % of control

## CCCCCCCCC(Cn1ccnc1)c1ccc(F)cc1 (stereo unspecified)
dose: 50.0 mg/kg/injection, schedule: Q04DX003 (ip), vehicle: saline with Tween-80
  T/C: 106 % of control
dose: 100.0 mg/kg/injection, schedule: Q04DX003 (ip), vehicle: saline with Tween-80
  T/C: 100 % of control and 103 % of control
dose: 200.0 mg/kg/injection, schedule: Q04DX003 (ip), vehicle: saline with Tween-80
  T/C: 100 % of control

## S=C1Cc2[nH]c(=S)sc(=S)c2C(=S)N1
[8]
  T/C: 87 % of control

## O=[N+]([O-])c1ccc(SSc2ccc([N+](=O)[O-])s2)s1
dose: 100.0 mg/kg/injection, schedule: Q01DX001 (ip), vehicle: Klucel (hydroxypropylcellulose) (HPC)
  T/C: 106 % of control

## CC1CC(O)C(=O)C2(C)C1CC1OC(=O)CC3C(C)C(=O)C(O)C2C13 (stereo unspecified)
dose: 50.0 mg/kg/injection, schedule: Q01DX005 (ip), vehicle: saline with Tween-80
  T/C: 100 % of control
dose: 100.0 mg/kg/injection, schedule: Q01DX005 (ip), vehicle: saline with Tween-80
  T/C: 104 % of control
dose: 200.0 mg/kg/injection, schedule: Q01DX005 (ip), vehicle: saline with Tween-80
  T/C: 99 % of control
